These results are taken from patent US20240252488A1 (KOREA RESEARCH INSTITUTE OF CHEMICAL TECHNOLOGY, priority 2020, published 2024).

In assay [1] the target is T1, MLKL (Homo sapiens, UniProt Q8NB16).
T1 sequence (Q8NB16 1-471): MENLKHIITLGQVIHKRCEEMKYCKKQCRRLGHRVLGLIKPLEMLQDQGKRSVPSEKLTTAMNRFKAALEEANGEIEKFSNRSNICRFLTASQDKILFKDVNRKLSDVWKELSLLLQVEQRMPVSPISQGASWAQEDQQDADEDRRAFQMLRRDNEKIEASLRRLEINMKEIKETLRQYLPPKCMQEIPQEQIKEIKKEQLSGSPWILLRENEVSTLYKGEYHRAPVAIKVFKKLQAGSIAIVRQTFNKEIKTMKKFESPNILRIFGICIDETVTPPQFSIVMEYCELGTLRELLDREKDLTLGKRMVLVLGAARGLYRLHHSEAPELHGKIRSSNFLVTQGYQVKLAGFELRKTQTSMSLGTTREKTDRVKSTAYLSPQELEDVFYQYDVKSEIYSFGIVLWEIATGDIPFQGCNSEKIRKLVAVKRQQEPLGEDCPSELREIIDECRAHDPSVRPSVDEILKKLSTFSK
Put plainly: Measurement of binding affinity with MLKL receptor (competitive binding assay, Kd). Also on record: made in house; host or cells: HEK 293 cell line (T7 phage in E. coli BL21-derived host is also described). The method in brief: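 Kd comes from a bead-based competition format: compound-dependent loss of DNA-tagged, HEK 293-expressed MLKL capture, measured as eluate kinase by qPCR. Final DMSO is 0.9%.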

Assay [2] addresses T1, MLKL. Put plainly: MLKL degradation assay in HepG2 cell line (western blot). The conditions noted are these: cell line not given; for Degradation assay (Degradation %) 1 μM: compound 1 μM; for Degradation assay (Degradation %) 10 μM: compound 10 μM. Also on record: endogenous in cells; host or cells: HepG2 or HaCaT. Format: cell-based. An outline of the steps:
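HepG2 cells were exposed to compound at a final 1 or 10 μM for 20-24 hours at 37 °C, 5% CO2. RIPA lysates were normalized by BCA assay, 10-15 μg protein resolved by SDS-PAGE, and MLKL levels detected by western blot with chemiluminescence.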
In general terms: A western blot detects proteins with antibodies after separation by electrophoresis.

The subject of the next assay is FADD−/− Jurkat cells. The assay can be described thus: Necroptosis inhibition assay, TNF-α-induced necroptosis (CellTiter-Glo 2.0). The assay is classed as cell-based, human. The conditions noted are these: TNF-α 15 ng/mL; for Necroptosis inhibition assay (Rescue %) 1 μM: compound 1 μM; for Necroptosis inhibition assay (Rescue %) 10 μM: compound 10 μM. An outline of the steps:
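Cells at 5.0×10^5 cells/mL were pretreated with compound (final 0.1, 1 and 10 μM) for 30 minutes at room temperature, then given TNF-α at 15 ng/mL final. After 20 to 24 hours at 37° C, 5% CO2, viability was read as ATP luminescence to calculate cytotoxicity and necroptosis inhibition rate.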
A general note: ATP-based viability assays read luminescence as a measure of living cells.

One may read the Kd as the concentration at which binding is half-saturated.

The molecule `Nc1ncc(-c2cnn(C3CCN(C[C@H]4CC[C@H](CNC(=O)COc5ccc6c(c5)C(=O)N(C5CCC(=O)NC5=O)C6=O)CC4)CC3)c2)nc1C(=O)O[C@@H](C(=O)Nc1ccc(F)cc1)c1ccccc1` (stereo partly drawn) [TDH-346, (R)-2-((4-fluorophenyl)amino)-2-oxo-1-phenylethyl 3-amino-6-(1-(1-(((1r,4r)-4-((2-((2-(2,6-dioxopiperidin-3-yl)-1,3-dioxoisoindolin-5-yl)oxy)acetamido)methyl)cyclohexyl)methyl)piperidin-4-yl)-1H-pyrazol-4-yl)pyrazine-2-carboxylate] gave a dissociation constant Kd at MLKL [1] of 1.2 nM. In addition, on MLKL [2], the “Degradation assay (Degradation %) 1 μM” value is 85.62% and the “Degradation assay (Degradation %) 10 μM” value is given as 81.91%. Further, in the assay with FADD−/− Jurkat cells, the “Necroptosis inhibition assay (Rescue %) 1 μM” value came out at 57.41% and the “Necroptosis inhibition assay (Rescue %) 10 μM” value is recorded as 24.57%.
The matching figures for `Nc1ncc(-c2cnn([C@@H]3CCN(CC4CCN(C(=O)CNc5cccc6c5C(=O)N(C5CCC(=O)NC5=O)C6=O)CC4)C3)c2)nc1C(=O)OC(C(=O)Nc1ccc(F)cc1)c1ccccc1` (stereo partly drawn) [TDH-285, 2-((4-fluorophenyl)amino)-2-oxo-1-phenylethyl 3-amino-6-(1-((3R)-1-((1-((2-(2,6-dioxopiperidin-3-yl)-1,3-dioxoisoindolin-4-yl)glycyl)piperidin-4-yl)methyl)pyrrolidin-3-yl)-1H-pyrazol-4-yl)pyrazine-2-carboxylate]: 13 nM, 56.55%, 50.66%, 36.72% and 40.43%.
As to `Nc1ncc(-c2cnn(C3CCN(C(=O)CCC4CCN(C(=O)CC5CCN(c6cccc7c6C(=O)N(C6CCC(=O)NC6=O)C7=O)CC5)CC4)CC3)c2)nc1C(=O)O[C@@H](C(=O)Nc1ccc(F)cc1)c1ccccc1` (stereo partly drawn) [TDH-429, (R)-2-((4-fluorophenyl)amino)-2-oxo-1-phenylethyl 3-amino-6-(1-(1-(3-(1-(2-(1-(2-(2,6-dioxopiperidin-3-yl)-1,3-dioxoisoindolin-4-yl)piperidin-4-yl)acetyl)piperidin-4-yl)propanoyl)piperidin-4-yl)-1H-pyrazol-4-yl)pyrazine-2-carboxylate], binding at MLKL [1] was put at a Kd of 2.3 nM. Also, on MLKL [2], the “Degradation assay (Degradation %) 1 μM” value came out at 77.13% and the “Degradation assay (Degradation %) 10 μM” value is given as 63.72%. For the same molecule, in the assay with FADD−/− Jurkat cells (FADD−/− Jurkat cells), the “Necroptosis inhibition assay (Rescue %) 1 μM” value amounted to 18.34% and the “Necroptosis inhibition assay (Rescue %) 10 μM” value is 11.03%.
In turn, `Nc1ncc(-c2cnn(C3CCN(CC4CCN(C(=O)COc5ccc6c(c5)C(=O)N(C5CCC(=O)NC5=O)C6=O)CC4)CC3)c2)nc1C(=O)O[C@@H](C(=O)Nc1ccc(F)cc1)c1ccccc1` (stereo partly drawn) [TDH-171, (R)-2-((4-fluorophenyl)amino)-2-oxo-1-phenylethyl 3-amino-6-(1-(1-((1-(2-((2-(2,6-dioxopiperidin-3-yl)-1,3-dioxoisoindolin-5-yl)oxy)acetyl)piperidin-4-yl)methyl)piperidin-4-yl)-1H-pyrazol-4-yl)pyrazine-2-carboxylate] registered a Kd on MLKL [1] of 2.3 nM. At MLKL [2], the “Degradation assay (Degradation %) 1 μM” value is given as 64.64% and the “Degradation assay (Degradation %) 10 μM” value was found to be 64.5%. Further, in the assay on FADD−/− Jurkat cells, the “Necroptosis inhibition assay (Rescue %) 1 μM” value is reported as 93.81% and the “Necroptosis inhibition assay (Rescue %) 10 μM” value is given as 65.91%.
The molecule `Nc1ncc(-c2cnn(C3CCN(CCC4CCN(C(=O)COc5ccc6nnn(C7CCC(=O)NC7=O)c(=O)c6c5)CC4)CC3)c2)nc1C(=O)OC(C(=O)Nc1ccc(F)cc1)c1ccccc1` (stereo not shown) [TDH-293, 2-((4-fluorophenyl)amino)-2-oxo-1-phenylethyl 3-amino-6-(1-(1-(2-(1-(2-((3-(2,6-dioxopiperidin-3-yl)-4-oxo-3,4-dihydrobenzo[d][1,2,3]triazin-6-yl)oxy)acetyl)piperidin-4-yl)ethyl)piperidin-4-yl)-1H-pyrazol-4-yl)pyrazine-2-carboxylate] came in with a Kd on MLKL [1] of 2.3 nM. Also, at MLKL [2], the “Degradation assay (Degradation %) 1 μM” value was determined as 76.09% and the “Degradation assay (Degradation %) 10 μM” value was found to be 71.04%. In the assay on FADD−/− Jurkat cells, the “Necroptosis inhibition assay (Rescue %) 1 μM” value amounted to 108.66% and the “Necroptosis inhibition assay (Rescue %) 10 μM” value is on record as 87.1%.
In the case of `COc1ccc(C(=O)N2CCC(CN3CCC(CN4CCC(n5cc(-c6cnc(N)c(C(=O)O[C@@H](C(=O)Nc7ccc(F)cc7)c7ccccc7)n6)cn5)CC4)CC3)CC2)cc1N1CCC(=O)NC1=O` [TDH-477, (R)-2-((4-fluorophenyl)amino)-2-oxo-1-phenylethyl 3-amino-6-(1-(1-((1-((1-(3-(2,4-dioxotetrahydropyrimidin-1(2H)-yl)-4-methoxybenzoyl)piperidin-4-yl)methyl)piperidin-4-yl)methyl)piperidin-4-yl)-1H-pyrazol-4-yl)pyrazine-2-carboxylate], the Kd at MLKL [1] was 0.26 nM. In addition, on MLKL [2], the “Degradation assay (Degradation %) 1 μM” value came to 92.48% and the “Degradation assay (Degradation %) 10 μM” value came to 90.67%. In the assay with FADD−/− Jurkat cells (FADD−/− Jurkat cells), the “Necroptosis inhibition assay (Rescue %) 1 μM” value is 62.38% and the “Necroptosis inhibition assay (Rescue %) 10 μM” value is listed as 21.83%.
As to `Nc1ncc(-c2cn(C3CCN(CC4CCN(C(=O)C5CCN(c6cccc7c6C(=O)N(C6CCC(=O)NC6=O)C7=O)CC5)CC4)CC3)nn2)nc1C(=O)OC(C(=O)Nc1ccc(F)cc1)c1ccccc1` (stereo not shown) [TDH-222, 2-((4-fluorophenyl)amino)-2-oxo-1-phenylethyl 3-amino-6-(1-(1-((1-(1-(2-(2,6-dioxopiperidin-3-yl)-1,3-dioxoisoindolin-4-yl)piperidine-4-carbonyl)piperidin-4-yl)methyl)piperidin-4-yl)-1H-1,2,3-triazol-4-yl)pyrazine-2-carboxylate], the dissociation constant Kd at MLKL [1] came out at 16 nM. Besides, at MLKL [2], the “Degradation assay (Degradation %) 1 μM” value is on record as 37.4% and the “Degradation assay (Degradation %) 10 μM” value was 30.04%. In the assay on FADD−/− Jurkat cells, the “Necroptosis inhibition assay (Rescue %) 1 μM” value is reported as 45.31% and the “Necroptosis inhibition assay (Rescue %) 10 μM” value stood at 34.2%.
`Nc1ncc(-c2cnn(C3CCN(CC4CN(C(=O)COc5ccc6c(c5)C(=O)N(C5CCC(=O)NC5=O)C6=O)CCO4)CC3)c2)nc1C(=O)OC(C(=O)Nc1ccc(F)cc1)c1ccccc1` (stereo not shown) [TDH-309, 2-((4-fluorophenyl)amino)-2-oxo-1-phenylethyl 3-amino-6-(1-(1-((4-(2-((2-(2,6-dioxopiperidin-3-yl)-1,3-dioxoisoindolin-5-yl)oxy)acetyl)morpholin-2-yl)methyl)piperidin-4-yl)-1H-pyrazol-4-yl)pyrazine-2-carboxylate]: the affinity at MLKL [1], expressed as Kd, was 2.2 nM. Moreover, on MLKL [2], the “Degradation assay (Degradation %) 1 μM” value stood at 76.12% and the “Degradation assay (Degradation %) 10 μM” value came to 77.55%. Besides, in the assay on FADD−/− Jurkat cells, the “Necroptosis inhibition assay (Rescue %) 1 μM” value is on record as 75.1% and the “Necroptosis inhibition assay (Rescue %) 10 μM” value came out at 78.37%.
`Nc1ncc(-c2cnn(C3CCN(CCC4CCN(C(=O)c5ccc6c(N7CCC(=O)NC7=O)coc6c5)CC4)CC3)c2)nc1C(=O)O[C@@H](C(=O)Nc1ccc(F)cc1)c1ccccc1` [TDH-552, (R)-2-((4-fluorophenyl)amino)-2-oxo-1-phenylethyl 3-amino-6-(1-(1-(2-(1-(3-(2,4-dioxotetrahydropyrimidin-1(2H)-yl)benzofuran-6-carbonyl)piperidin-4-yl)ethyl)piperidin-4-yl)-1H-pyrazol-4-yl)pyrazine-2-carboxylate] showed a Kd on MLKL [1] of 0.41 nM. Besides, on MLKL [2], the “Degradation assay (Degradation %) 1 μM” value is 92.21% and the “Degradation assay (Degradation %) 10 μM” value was found to be 75.10%. Also, in the assay on FADD−/− Jurkat cells (FADD−/− Jurkat cells), the “Necroptosis inhibition assay (Rescue %) 1 μM” value was determined as 31.97% and the “Necroptosis inhibition assay (Rescue %) 10 μM” value is listed as 6.25%.
For the molecule `Nc1ncc(-c2cn(C3CCN(CC4CCN(c5ccc6c(c5)C(=O)N(C5CCC(=O)NC5=O)C6=O)CC4)CC3)nn2)nc1C(=O)OC(C(=O)Nc1ccc(F)cc1)c1ccccc1` (stereo not shown) [TDH-226, 2-((4-fluorophenyl)amino)-2-oxo-1-phenylethyl 3-amino-6-(1-(1-((1-(2-(2,6-dioxopiperidin-3-yl)-1,3-dioxoisoindolin-5-yl)piperidin-4-yl)methyl)piperidin-4-yl)-1H-1,2,3-triazol-4-yl)pyrazine-2-carboxylate], at MLKL [1], binding was put at a Kd of 16 nM. In addition, the “Degradation assay (Degradation %) 10 μM” value at MLKL [2] was found to be 36.06%. In addition, in the assay with FADD−/− Jurkat cells, the “Necroptosis inhibition assay (Rescue %) 1 μM” value is recorded as 36.17% and the “Necroptosis inhibition assay (Rescue %) 10 μM” value came out at 17.82%.
